Source: ChEMBL document CHEMBL4819010, “Design, synthesis, and biological studies of novel 3-benzamidobenzoic acid derivatives as farnesoid X receptor partial agonist” (Eur J Med Chem, 2021)
Active and inactive are the calls of the source. The rule behind the calls is not given here.

Assays:
[1] = target: T1, Bile acid receptor (Homo sapiens, UniProt Q96RI1); assay: Agonist activity at FXR-LBD (unknown origin) assessed by ligand binding ability incubated for 3 hrs in absence of light measured by TR-FRET Coactivator assay
T1 sequence (Q96RI1 whole entry): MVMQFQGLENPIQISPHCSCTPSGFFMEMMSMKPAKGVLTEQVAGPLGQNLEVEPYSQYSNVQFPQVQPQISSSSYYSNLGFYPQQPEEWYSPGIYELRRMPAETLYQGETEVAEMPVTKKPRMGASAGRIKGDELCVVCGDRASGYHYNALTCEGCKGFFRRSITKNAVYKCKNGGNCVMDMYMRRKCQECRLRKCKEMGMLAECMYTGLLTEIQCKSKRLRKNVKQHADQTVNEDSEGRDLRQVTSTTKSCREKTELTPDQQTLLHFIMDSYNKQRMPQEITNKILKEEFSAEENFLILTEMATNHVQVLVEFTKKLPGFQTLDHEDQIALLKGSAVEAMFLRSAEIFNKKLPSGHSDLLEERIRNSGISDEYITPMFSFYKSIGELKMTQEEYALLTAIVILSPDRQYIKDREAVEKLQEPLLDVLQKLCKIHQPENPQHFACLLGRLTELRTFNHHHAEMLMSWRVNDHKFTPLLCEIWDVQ

[2] = Agonist activity at FXR (unknown origin)/human RXR heterodimer expressing in human HepG2 cells co-expressing pCMV gal assessed luciferase activity measured after 24 hrs by cell based luciferase transactivation assay; conditions: HepG2, 24 h
[3] = tested on: HepG2; assay: Agonist activity at FXR (unknown origin)/human RXR heterodimer expressing in human HepG2 cells co-expressing pCMV gal assessed luciferase activity measured after 24 hrs by cell based luciferase transactivation assay relative to […]; conditions: dose 3.0 µM
[4] = tested on: Mus musculus; assay: Hepatoprotective activity in APAP-induced C57BL/6 mouse liver injury model assessed as decrease in hepatic necrosis at 30 mg/kg, bid oral gavage for 5 days measured after 12 hrs of APAP injection; type: functional, organism-based; conditions: time 5.0 day
[5] = tested on: Mus musculus; assay: Hepatoprotective activity in APAP-induced C57BL/6 mouse liver injury model assessed as decrease in hepatic degeneration at 30 mg/kg, bid oral gavage for 5 days measured after 12 hrs of APAP injection; type: functional, organism-based; conditions: time 5.0 day
[6] = tested on: Mus musculus; assay: Hepatoprotective activity in APAP-induced C57BL/6 mouse liver injury model assessed as decrease in hepatic haemorrhage at 30 mg/kg, bid oral gavage for 5 days measured after 12 hrs of APAP injection; type: functional, organism-based; conditions: time 5.0 day
[7] = tested on: Mus musculus; assay: Hepatoprotective activity in APAP-induced C57BL/6 mouse liver injury model assessed as decrease in serum ALT levels at 30 mg/kg, bid oral gavage measured after 5 days; type: functional, organism-based; conditions: time 5.0 day
[8] = tested on: Mus musculus; assay: Hepatoprotective activity in APAP-induced C57BL/6 mouse liver injury model assessed as decrease in serum AST levels at 30 mg/kg, bid oral gavage measured after 5 days; type: functional, organism-based; conditions: time 5.0 day
[9] = tested on: Mus musculus; assay: Hepatoprotective activity in APAP-induced C57BL/6 mouse liver injury model assessed as decrease in serum LDH levels at 30 mg/kg, bid oral gavage measured after 5 days; type: functional, organism-based; conditions: time 5.0 day

EC50 [1] [µM] | Structure (SMILES) | also measured
0.607 | COc1ccc(C(=O)Nc2cccc(C(=O)O)c2)cc1 | –
2.76 | CC(C)CCOc1cccc(C(=O)Nc2cccc(C(=O)O)c2)c1 | –
> 10 | Cc1ccc(NC(=O)c2cccc(C(=O)O)c2)cc1 | –
0.097 | O=C(O)c1cccc(NC(=O)c2ccc(Oc3ccccc3)cc2)c1 | EC50 [2]: 0.463 µM; Activity [3]: 21.2%; Activity [4]: Active; Activity [5]: Active; Activity [6]: Active; Activity [7]: Active; Activity [8]: Active; Activity [9]: Active
1.86 | Cc1cccc(COc2cccc(C(=O)Nc3cccc(C(=O)O)c3)c2)c1 | –
0.215 | CC(C)CCOc1ccc(C(=O)Nc2cccc(C(=O)O)c2)cc1 | –

The remaining lines, values behind:

Structure (SMILES) | EC50 [1] [µM] | also measured
O=C(O)c1cccc(NC(=O)c2ccc(-c3ccccc3)cc2)c1 | > 10 | –
Cc1ccccc1-c1cccc(COc2ccc(C(=O)Nc3cccc(C(=O)O)c3)cc2)c1 | 1.02 | –
Cc1ccccc1-c1cccc(C(=O)Nc2cccc(C(=O)O)c2)c1 | 0.068 | EC50 [2]: 0.385 µM; Activity [3]: 23.1%
CC(C)(Oc1cccc(NC(=O)c2ccc(Oc3ccccc3)cc2)c1)C(=O)O | > 10 | –
O=C(O)c1cccc(NC(=O)c2ccc(OCc3ccccc3)cc2)c1 | 0.135 | –
COc1cccc(C(=O)Nc2cccc(C(=O)O)c2)c1 | 1.03 | –
COc1ccccc1C(=O)Nc1cccc(C(=O)O)c1 | > 10 | –
CCCCOc1cccc(-c2cccc(C(=O)Nc3cccc(C(=O)O)c3)c2)c1 | 0.256 | –
Cc1nc(-c2ccc(C(F)(F)F)cc2)sc1C(=O)Nc1cccc(C(=O)O)c1 | 0.315 | –
O=C(O)c1cccc(OCc2ccc(Oc3ccccc3)cc2)c1 | > 10 | –
O=C(O)c1cccc(NC(=O)c2ccc(OCc3cccc(-c4ccccc4)c3)cc2)c1 | 0.319 | –
CO/N=C(/COc1ccc(C(=O)Nc2cccc(C(=O)O)c2)cc1)c1ccccc1 | > 10 | –
